This passage reports inhibition and EC50 results from paper PMC8144350, “Block of TREK and TRESK K2P channels by lamotrigine and two derivatives sipatrigine and CEN-092” (Biochemistry and Biophysics Reports, 2021).

Assay in all cases: whole-cell patch-clamp, tsA201 cells
Assay type in all cases: cell-based

Assay [1] concerns the target T1, TRESK (Homo sapiens, UniProt Q7Z418).
T1 construct: gene KCNK18; wild-type human TRESK (NP_862823.1)
T1 sequence (Q7Z418 1-384): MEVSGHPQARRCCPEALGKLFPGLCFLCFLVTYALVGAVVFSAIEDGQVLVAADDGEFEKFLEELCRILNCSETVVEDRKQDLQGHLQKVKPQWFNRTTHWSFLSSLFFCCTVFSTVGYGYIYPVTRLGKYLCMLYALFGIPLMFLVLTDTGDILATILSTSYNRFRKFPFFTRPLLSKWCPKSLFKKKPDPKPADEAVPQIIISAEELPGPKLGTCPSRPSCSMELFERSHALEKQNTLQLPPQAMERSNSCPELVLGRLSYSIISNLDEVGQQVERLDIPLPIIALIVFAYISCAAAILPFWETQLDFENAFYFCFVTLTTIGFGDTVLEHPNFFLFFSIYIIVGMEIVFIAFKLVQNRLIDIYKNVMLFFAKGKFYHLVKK

The target in assay [2] is T2, TREK-1 (Homo sapiens, UniProt O95069).
T2 construct: gene KCNK2; wild-type human TREK-1 (NP_055032.1)
T2 sequence (O95069 1-426): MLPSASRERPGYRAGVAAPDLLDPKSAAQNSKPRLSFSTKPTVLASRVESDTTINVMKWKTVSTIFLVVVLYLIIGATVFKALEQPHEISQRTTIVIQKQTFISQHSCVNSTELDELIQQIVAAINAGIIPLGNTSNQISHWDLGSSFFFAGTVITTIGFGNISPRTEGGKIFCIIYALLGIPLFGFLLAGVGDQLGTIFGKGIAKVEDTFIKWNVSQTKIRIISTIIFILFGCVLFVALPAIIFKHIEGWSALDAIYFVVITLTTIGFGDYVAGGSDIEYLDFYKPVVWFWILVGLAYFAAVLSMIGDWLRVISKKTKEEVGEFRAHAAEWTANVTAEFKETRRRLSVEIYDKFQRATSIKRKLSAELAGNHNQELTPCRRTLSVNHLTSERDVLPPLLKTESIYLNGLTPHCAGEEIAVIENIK

Assay [3] deals with T3, TREK-2 (Homo sapiens, UniProt P57789).
T3 construct: gene KCNK10; wild-type human TREK-2 (NP_612190.1)
T3 sequence (P57789 1-538): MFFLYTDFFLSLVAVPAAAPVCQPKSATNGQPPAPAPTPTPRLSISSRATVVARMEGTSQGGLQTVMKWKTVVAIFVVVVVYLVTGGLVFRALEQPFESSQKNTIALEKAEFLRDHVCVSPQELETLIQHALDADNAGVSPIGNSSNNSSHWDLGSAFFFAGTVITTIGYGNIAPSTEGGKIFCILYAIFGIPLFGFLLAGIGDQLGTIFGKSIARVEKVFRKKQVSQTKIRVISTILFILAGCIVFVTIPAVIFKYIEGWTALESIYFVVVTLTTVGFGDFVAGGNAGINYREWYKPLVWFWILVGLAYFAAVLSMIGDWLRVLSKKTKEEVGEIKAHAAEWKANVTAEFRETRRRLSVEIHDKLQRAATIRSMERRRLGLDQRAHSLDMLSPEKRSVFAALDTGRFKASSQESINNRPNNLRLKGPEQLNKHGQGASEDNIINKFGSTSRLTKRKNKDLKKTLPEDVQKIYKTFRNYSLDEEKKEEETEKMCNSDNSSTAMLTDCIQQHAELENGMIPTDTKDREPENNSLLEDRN

Assay [4] concerns the target T2, TREK-1. This is another data set of the same source.

Broadly, the inhibition is the percentage by which the read-out fell short of the control. A low value points to little suppression. In the case of `Nc1nnc(-c2cc(C(F)(F)F)cc(C(F)(F)F)c2)c(N)n1` [CEN-092, 3,5-diamino-6-(3,5-bistrifluoromethylphenyl)-1,2,4-triazine], the inhibition at 100 µM in assay [1] was found to be 43%; in assay [2] it was 21%.

On to `Nc1nnc(-c2cccc(Cl)c2Cl)c(N)n1` [lamotrigine], for which the inhibition at 100 µM is 14% in assay [3], 35% in assay [1] and 30% in assay [2].

In general, EC50 refers to the concentration giving half of the maximal effect. Read a low EC50 as an effect from little substance. `CN1CCN(c2ncc(-c3cc(Cl)cc(Cl)c3Cl)c(N)n2)CC1` [sipatrigine]: 100 µM produced 85% inhibition in assay [3]. The same compound registered an EC50 in assay [4] of 16 µM.
